Patent publication US5162203A, “Methods of measuring isozymes and isozyme classes of alcohol dehydrogenase” (President and Fellows of Harvard College, priority 1989, dated 1992)
Read-outs that look alike come from different tables or passages of the source.

Columns and labels:
Class I ADH [1] = test: Inhibition of Class I ADH; type: biochemical, human; conditions: for Class I ADH activity abolished: 0.2 mM inhibitor
Method: (§1) The linear increase of fluorescence was then recorded for 1-10 minutes, until 0.03-1 μM of substrate was consumed. Larger substrate consumption was not found to be desirable (described in subpart (c) below). After this period the instrument sensitivity setting was reduced 10-30 fold, the signal compensated once again by zero suppression (see part 6 above), and 60 μl of 200-400 μM product (e.g., product IB or IIB) was added to provide an internal standard. The added product fluorescence intensity was then measured Fluorescence measurements were optimized for samples with low activity (<1 nM/minute). For samples with higher activity, repeat measurements were made with the serum volume reduced from 60 μl to 10 μl. Rates measured in the presence of the 0.2 mM ADH inhibitors. 4-MeP or 4-PeP, were made by adding 50 μl of 12 mM inhibitor to the cuvette prior to the assay buffer, and the reaction was carried out as above.
(§2) Aldehyde reduction and 4-MeP inhibition are near optimal at pH 7.6 which was adopted for the study of serum samples.
(§3) The values for these constants were determined with purified Class II ADH or a mixture of purified Class I isozymes, under the fluorometric assay conditions described above in Example 1.

β1 β1 ADH (Class I) = test: Inhibition of β1β1 (ββ) ADH; type: biochemical, human
Method: as §1, §2

β2 β2 ADH (Class I) = molecular target: T1, β2 β2 ADH (Class I) (Homo sapiens, UniProt P00325); test: Inhibition of β2β2 ADH; type: biochemical; conditions: 0.2 mM 4-MeP
T1 construct: beta2 allele (ADH1B*2)
Method: as §1, §2

[2] = molecular target: T2, ADH activity in human serum (Homo sapiens, UniProt P08319); test: Inhibition of ADH activity in human sera; type: biochemical; conditions: 17 healthy volunteers
T2 construct: from tissue; host or cells: human serum of patients and volunteers
Method: as §1
(§4) The activities of a large group of serum samples were further examined for inhibition by 4-MeP and 4-PeP, both at 0.2 mM, a concentration that abolishes 95-98% of the Class I and Class II ADH activity as shown in Table IV above. […] In contrast, 4-PeP inhibited activity toward IA by greater than […] and IIA by more than 90% in virtually all samples examined (FIG. 8C). The total number of samples examined was 83 for FIG. 8A, 105 for FIG. 8B, and 44 for FIG. 8C.
(§5) Sera whose ADH activity was increased beyond those seen normally were selected based on the modified NDMA assay as described in part 7 of Example 1. In approximately 3% of several hundred random hospital patients tested, elevations in ADH activity were observed using the modified NDMA assay described in part 7 of Example 1. These sera with elevated levels (>2 NDMA mU/ml) were then tested by the fluorometric assay described in part 8 of Example 1 using IA as substrate. Class I ADH activity was detected in nearly all of those classified as having elevated ADH levels by the NDMA criterion. The fluorescent reaction product was analyzed and confirmed to be the alcohol ADH product IB. The observed reaction was inhibited >95% by 3 mM 4-MeP; this confirmed that the activity observed was due primarily to Class I ADH. The rate of reduction of IA was also diminished by the addition of high concentrations (>>Km) of typical ADH substrates, e.g., 0.5 mM benzaldehyde or butyraldehyde, presumably due to competition. […] The optimal dilution for routine measurements was approximately 50-fold.

[3] = tested on: ADH activity in human serum; test: Inhibition of ADH activity in human sera; type: biochemical; conditions: for effect on rate of reduction of IA in sera with elevated ADH: 0.5 mM
Method: as §1, §4, §5

Class II ADH [4] = molecular target: T3, Class II ADH (Homo sapiens, UniProt P08319); test: Inhibition of Class II ADH; type: biochemical; design: was used to purify Class II ADH from human livers; from tissue; host or cells: human liver
Method: as §1, §2, §3

Class III ADH = molecular target: T4, Class III ADH (Homo sapiens, UniProt P11766); test: Inhibition of Class III ADH; type: biochemical
T4 construct: Adult human livers were obtained at autopsy; from tissue; host or cells: human liver obtained at autopsy
Method: With a high Km value of >0.5 mM, substrate IIA is completely insensitive for Class III ADH. Because Class III ADH has greater hydrophobic selectivity than Classes I and II ADH, naphthaldehydes and quinoline aldehydes which have aliphatic side chains may provide adequate sensitivity for measuring the amount of Class III ADH in serum. In addition because of its greater hydrophobic selectivity, inhibitor compounds such as 4-alkylpyrazoles having aliphatic side chains of 5 carbons (e.g., 4-PeP) or greater may provide, under certain conditions and at certain concentrations, adequate selectivity for measuring Class III ADH in the presence of Classes I and II. […] At 100 μM 4-PeP, the values for inhibition are: Classes I and II, >90%; Class III <10%. Thus, under certain conditions 4-PeP is clearly useful as a selective inhibitor of Class I and II activities, leaving >90% of Class III activity intact and measurable.

Class I ADH [5] = test: Inhibition of Class I ADH; type: biochemical, human
[6] = Spectral parameters for absorption and fluorescence of ADH substrates and products; type: physicochemical; conditions: for Absorption εmax / Absorption λmax / Fluorescence .phi. (quantum yield) / Fluorescence λmax: Mes buffer (45 mM), pH 7.0
Method: The spectral parameters for 4-methoxy-1-naphthaldehyde (IA), 6-methoxy-2-naphthaldehyde (IIA) and their reduction products (IB and IIB, respectively) are shown in Table I.
Ultraviolet absorption spectra were measured on a Cary 219 or Hewlett-Packard 8451 spectrophotometer. Fluorescence measurements were made in a Perkin Elmer MPF3 spectrofluorometer, equipped with an Osram XBO 150 Watt Xenon lamp, an R446 photomultiplier, and thermostatted cell holder through which water was passed from a Poly-Temp circulator with the following spectrometer settings: excitation wavelength 316 nm. bandwidth 8 nm for both substrate IA and IIA; emission wavelength. 370 nm for substrate IA and 360 nm for substrate IIA, emission bandwidth 24 nm. Changes in fluorescence as a result of oxidation or reduction of the substrate was then measured in the ratio mode. Generally, for fluorometric reactions (see part 8 below). a sensitivity setting of 3 was used with compensation of fluorescence background by the zero suppression control of the instrument.
Aldehyde reduction was monitored by following the decrease of absorption at 340 nm in 40 mM Mes buffer, pH 7.1. in the presence of saturating NADH, 50 μM for Class I and 100 μM for Class II. […] Initial reaction rates were measured and kinetic parameters determined by conventional procedures as described by Segel, 1975, Enzyme Kinetics, pp. 591-597, Wiley, N.Y.

[7] = Stability of substrates and product solutions; type: physicochemical; conditions: 200-400 μM, water with <5% ethanol
Method: The dilute solutions (300 μM) were prepared by diluting 1 ml of the stock solution to 10 ml with water.
Concentrations were determined spectrophotometrically using a molar absorptivity of 5700 M^-1 cm^-1 at 296 nm for IB and 1270 M^-1 cm^-1 at 330 nm for IIB.

[8] = Fluorescence quenching of alcohol products in 50-fold diluted serum; type: physicochemical, human; conditions: 50-fold dilution of serum
Description: Human serum is known to fluoresce over a broad spectral region (Wolfbeis et al., 1985. Anal. Chim. Acta. 167:203-315); the instrumental settings should therefore be chosen to optimize the signal/background noise ratio. […] A 50-fold dilution of serum minimizes interference and maximizes sensitivity. At this dilution, alcohol product IB is only quenched 15% while IIB is quenched 5%. […] The cause of this background fluorescence is unknown

Class II ADH [9] = molecular target: T3, Class II ADH; conditions: Class II versus other ADH isozymes; cited from earlier work
[10] = 0.2 mM inhibitor, read-out: Class II ADH activity abolished
[11] = 1 mM 4-PeP, pH 10, 0.1M glycine buffer

T4 sequence (P11766 2-374 limits assumed): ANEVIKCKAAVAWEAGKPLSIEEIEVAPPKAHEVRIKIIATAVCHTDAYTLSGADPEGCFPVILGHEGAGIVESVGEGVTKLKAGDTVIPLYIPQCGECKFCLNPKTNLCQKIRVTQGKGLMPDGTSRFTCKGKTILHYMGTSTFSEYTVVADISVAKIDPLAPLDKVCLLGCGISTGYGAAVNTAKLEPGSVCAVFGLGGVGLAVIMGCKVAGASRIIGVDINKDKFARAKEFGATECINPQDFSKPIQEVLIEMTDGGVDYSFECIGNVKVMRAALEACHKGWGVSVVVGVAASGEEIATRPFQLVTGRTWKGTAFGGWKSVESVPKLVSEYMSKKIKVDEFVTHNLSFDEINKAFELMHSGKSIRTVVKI
T3 sequence (P08319 2-380 limits assumed): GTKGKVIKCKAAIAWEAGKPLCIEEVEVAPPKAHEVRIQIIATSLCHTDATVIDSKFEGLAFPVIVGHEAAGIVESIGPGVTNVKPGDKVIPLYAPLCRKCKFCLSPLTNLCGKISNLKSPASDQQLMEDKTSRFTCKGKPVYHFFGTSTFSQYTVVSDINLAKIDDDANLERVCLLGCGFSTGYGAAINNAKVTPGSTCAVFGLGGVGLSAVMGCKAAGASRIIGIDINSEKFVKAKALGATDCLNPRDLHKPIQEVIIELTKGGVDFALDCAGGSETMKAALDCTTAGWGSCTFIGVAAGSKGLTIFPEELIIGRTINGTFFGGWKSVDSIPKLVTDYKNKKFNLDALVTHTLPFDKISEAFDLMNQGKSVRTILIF
T1 sequence (P00325 2-375): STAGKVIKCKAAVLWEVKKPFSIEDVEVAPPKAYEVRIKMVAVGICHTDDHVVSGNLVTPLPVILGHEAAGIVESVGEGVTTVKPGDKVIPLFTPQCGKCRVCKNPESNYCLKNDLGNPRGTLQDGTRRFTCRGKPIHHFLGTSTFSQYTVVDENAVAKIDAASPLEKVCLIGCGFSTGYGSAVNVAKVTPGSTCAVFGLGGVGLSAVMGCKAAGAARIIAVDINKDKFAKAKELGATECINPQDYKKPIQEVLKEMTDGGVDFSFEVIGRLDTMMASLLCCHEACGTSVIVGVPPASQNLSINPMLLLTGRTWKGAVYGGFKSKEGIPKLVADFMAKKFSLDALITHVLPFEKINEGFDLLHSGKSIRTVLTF
T2 sequence (P08319 whole entry): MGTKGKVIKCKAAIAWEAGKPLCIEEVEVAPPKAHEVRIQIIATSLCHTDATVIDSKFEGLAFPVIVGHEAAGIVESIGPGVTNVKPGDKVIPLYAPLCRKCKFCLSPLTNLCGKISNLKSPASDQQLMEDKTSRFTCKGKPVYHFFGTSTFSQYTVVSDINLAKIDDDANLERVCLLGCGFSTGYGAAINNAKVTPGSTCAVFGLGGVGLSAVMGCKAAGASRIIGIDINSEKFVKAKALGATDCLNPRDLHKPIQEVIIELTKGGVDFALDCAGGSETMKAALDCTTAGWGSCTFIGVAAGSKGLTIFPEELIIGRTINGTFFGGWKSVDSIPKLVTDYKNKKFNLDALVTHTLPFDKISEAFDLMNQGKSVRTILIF

For `Cc1cn[nH]c1` [4-MeP, 4-Methylpyrazole], the “inhibition of all Class I isozymes” value (Class I ADH [1]; 0.2 mM 4-MeP, 15 μM IA or IIA, pH 7.6) was “more than 90%”, the “4-MeP Inhibition” value (Class I ADH [1]; 0.2 mM 4-MeP, substrate IA) was 98% and the “b: Class I activity fraction retained” value (Class I ADH [1]; 0.2 mM 4-MeP, substrate IA) was 0.025. The “4-MeP Inhibition” value (Class I ADH [1]; 0.2 mM 4-MeP, substrate IIA, average for Class I except ββ) was 92%, the “Class I ADH activity abolished” value (Class I ADH [1]) was 95-98% and the “enhancement of assay specificity for Class I and II isozymes with the two substrates” value (Class I ADH [1]; 4-MeP, Class I relative to Class II) was “about 100 fold”. The “4-MeP Inhibition” value (β1 β1 ADH (Class I); 0.2 mM 4-MeP, substrate IA) was ~ 95%, the “4-MeP Inhibition” value (β1 β1 ADH (Class I); 0.2 mM 4-MeP, substrate IIA) was 98% and the “e: fraction of ββ-ADH activity uninhibited” value (β1 β1 ADH (Class I); 0.2 mM 4-MeP, substrate IIA) was 0.025. The “inhibition of Class I ββ isozymes” value (β1 β1 ADH (Class I); words) was “inhibited readily”, the “4-MeP Inhibition” value (β2 β2 ADH (Class I); substrate IA, nm = not measurable) was “nm” and the inhibition at 200 µM (β2 β2 ADH (Class I); substrate IIA) was 97%. For the same compound, the “effect on activity towards IIA in normal sera” value ([2]; 4-MeP) was “insensitive”, the “activity toward IIA remaining in sera” value ([3]; 0.2 mM 4-MeP, 105 samples) was at least 70% and the “inhibition of IA activity in sera” value ([3]; 0.2 mM 4-MeP, majority of samples (83)) was “more than 90%”. The “inhibition of IA reaction in sera with elevated ADH” value ([3]; 3 mM 4-MeP) was over 95%, the inhibition at 200 µM (Class II ADH [4]; 0.2 mM 4-MeP, 15 μM IA or IIA, pH 7.6, read-out: inhibition of Class II ADH) was 11% and the inhibition at 200 µM (Class II ADH [4]; 0.2 mM 4-MeP, substrate IA, read-out: 4-MeP Inhibition) was 11%. The inhibition at 200 µM (Class II ADH [4]; 0.2 mM 4-MeP, substrate IIA, as fraction, read-out: c: degree of inhibition of Class II ADH) was 11% and the inhibition at 200 µM (Class II ADH [4]; [10]) was 95 to 98%.

For `CCCCCc1cn[nH]c1` [4-PeP, 4-Pentylpyrazole], the “Class I ADH activity abolished” value (Class I ADH [1]) was 95-98%, the “inhibition of Class I activity” value (Class I ADH [1]; 4-PeP, substrate IA) was “greater than 99%” and the inhibition at 100 µM (Class III ADH; 100 μM 4-PeP) was under 10%. The inhibition at 1000 µM (Class III ADH; [11]) was 60%, the activity at 100 µM (Class III ADH; 4-PeP, under certain conditions, read-out: Class III activity left intact and measurable) was over 90% and the “effect on activity towards IIA in normal sera” value ([2]; 0.2 mM 4-PeP) was “abolished”. The “inhibition of IIA activity in sera” value ([3]; 0.2 mM 4-PeP, virtually all samples (44)) was “more than 90%”, the inhibition (Class I ADH [5]; 100 μM 4-PeP) was over 90% and the inhibition of activity (Class I ADH [5]; [11]) was over 99.99%. It also gave an inhibition at 100 µM (Class II ADH [4]; 100 μM 4-PeP) of over 90%, an inhibition at 200 µM (Class II ADH [4]; [10]) of 95 to 98% and an inhibition at 1000 µM (Class II ADH [4]; [11]) of over 100%. The “inhibition of Class II activity” value (Class II ADH [4]; 4-PeP, substrate IIA) was “more than 90%”.

With `COc1ccc(CO)c2ccccc12` [IB, 4-methoxy-1-naphthalenemethanol] the “Absorption εmax” value [6] was 5,400 M^-1 cm^-1, the “Absorption λmax” value [6] was 297 nm and the “Fluorescence .phi. (quantum yield)” value [6] was 0.36. For the same compound, the “Fluorescence λmax” value [6] was 370 nm, the molar absorptivity ([6]; at 296 nm) was 5700 M⁻¹ cm⁻¹ and the “stability of product solutions” value [7] was “stable for up to a week”. It also gave a fluorescence quenching [8] of 15%.

For `COc1ccc2cc(CO)ccc2c1` [IIB, 6-methoxy-2-naphthalenemethanol], the “Absorption εmax” value [6] was 1,250 M^-1 cm^-1, the “Absorption λmax” value [6] was 329 nm and the “Fluorescence .phi. (quantum yield)” value [6] was 0.26. The “Fluorescence λmax” value [6] was 355 nm, the molar absorptivity ([6]; at 330 nm) was 1270 M⁻¹ cm⁻¹ and the “stability of product solutions” value [7] was “stable for up to a week”. For the same compound, the fluorescence quenching [8] was 5%.

With `O=Cc1ccccc1` [benzaldehyde] the “effect on rate of reduction of IA in sera with elevated ADH” value [3] was “diminished”.

In the case of `CCCC=O` [butyraldehyde], the “effect on rate of reduction of IA in sera with elevated ADH” value [3] was “diminished”.

In the case of `CCO` [ethanol], the “Km for ethanol of Class II relative to other ADH isozymes” value (Class II ADH [9]) is listed as at most 100 times.
